Results published in publication PMC10398685 (ACS Omega, 2023).
Entries after “also recorded” stand apart in the source; their conditions may differ.

Assays:
SARS-CoV-2 = experiment: microbe, parasite or virus in culture; format: cell-based; details: Severe acute respiratory syndrome coronavirus 2, Vero C1008, 72 h; VeroE6 cells, MOI~0.03, 3 days incubation, CPE by XTT; read-out: EC50 (anti-SARS-CoV-2 activity)
Plasma stability, human = format: in vitro ADME; details: 5uM, triplicates, 37 °C
Method: The microsomal half-lives (t1/2) were calculated using the equation t1/2=0.693/k, where k is the slope found in the linear fit of the natural logarithm of the fraction remaining of the parent compound vs. incubation time. […]
To determine plasma stability of the compounds, 5 μM of these were incubated with human pooled plasma from 50 donors (Biowest) for 120 min and 240 min at 37 °C. The reactions were terminated by adding four volumes of ice -cold methanol, the samples were then mixed vigorously and left at -20 °C for 1 h. After that, the samples were centrifuged, and the supernatant was analyzed by means of ECHO -MS® System (Sciex). Zero time points were prepared by adding ice-cold methanol to the compound prior the addition of the plasma. […]

in vitro = details: human
[1] = target: SARS-CoV-2 nsp14 7-N MTase (Severe acute respiratory syndrome coronavirus 2, UniProt P0DTD1); experiment: biochemical; details: Echo MS assay, 20 nM nsp14, 4 μM SAM, 4 μM GpppA, duplicates
[2] = Microsomal stability, human; format: in vitro ADME; details: triplicates; for Microsomal stability Rem. at 45 min / Microsomal stability T1/2: 0.5 mg/ml human microsomes, 5uM; for microsomal CLint at 5 µM / half-life at 5 µM: pooled liver microsomes, pH 7.4, 0.5 mg/ml human microsomes; for half-life at 5 µM: read-out: Microsomal stability T1/2
From the text: 50% methanol. The samples were then transferred to ECHO® -compatible 384-well plates and the amount of analytes were quantified by the ECHO -MS® System (Sciex) where acoustic droplet ejection module is coupled with Sciex 6500® triple quadrupole mass spectrometer operating with an electrospray ionization source. Spectrometer was run in the multiple reaction monitoring (MRM) mode. When necessary, the processed samples were further diluted in 50% methanol to fit in the calibration range. Calibration curves of the compounds in 50% methanol were measured alongside the samples within the same run. […]
3.4. Microsomal stability […]
The reactions were […]
terminated by the addition of four volumes of ice-cold methanol, mixed vigorously and left at -20 °C for 1 h. After that, the samples were centrifuged and the supernatants were analyzed by means of ECHO-MS® System (Sciex, Framingham, MA, USA). Zero time points were prepared by adding ice-cold methanol to the mixture of compound with cofactors prior to the addition of microsomes. The microsomal half-lives (t1/2) were calculated using the equation t1/2=0.693/k, where k is the slope found in the linear fit of the natural logarithm of the fraction remaining of the parent compound vs. incubation time. Intrinsic clearance (CLint) was calculated using the following formula: CLint = V * ln2 /t1/2, where V = incubation volume per milligram of microsomal protein (µL/mg) and t1/2 = microsomal half-life. […]
3.6. Caco-2 permeability assay
Transepithelial bi-directional transport of tested compounds (5 µM, pH 7.4/7.4) across the Caco-2 monolayers was studied using the BD BioCoat HTS Caco -2 assay system (BD Biosciences, Bedford, MA) as described in detail elsewhere.17 Aliquots were collected from the donor and acceptor compartment at the end of transport period (3 h), integrity of monolayers were verified using Lucifer Yellow dye and the compounds were quantified using LC-MS/MS (Sciex 6500® triple quadrupole). The apparent permeability coefficient (Papp) was calculated from the following equation: Papp = (dQ / dt) / C0 * A, where dQ/dt is the rate of absorption of the drug across the cells, C0 is the donor compartment concentration at time zero, and A is the area of the monolayer. Efflux ratio was expressed as (Papp B-A) / (Papp A-B). Recovery (%) was determined as (total compound mass in donor and receiver compartments at the end of the incubation / initial compound mass in the donor compartment) x 100.

[3] = Microsomal stability, mouse; format: in vitro ADME; details: triplicates; for Microsomal stability Rem. at 45 min / Microsomal stability T1/2: 0.5 mg/ml mouse microsomes, 5uM; for microsomal CLint at 5 µM / half-life at 5 µM: pH 7.4, 0.5 mg/ml mouse microsomes; for half-life at 5 µM: read-out: Microsomal stability T1/2

Q: With `CCN(C[C@H]1O[C@@H](n2cc(C#Cc3nc4ccccc4[nH]3)c3c(N)ncnc32)[C@H](O)[C@@H]1O)S(=O)(=O)c1ccc(OC)c(C#N)c1` [Compound 12a] as the compound, how does the EC50 (SARS-CoV-2) read?
A: Its EC50 is > 100 µM.

Q: What about the “Plasma stability Rem. at 120 min” value (Plasma stability, human) of the same compound?
A: Its value is 84.3 ± 2.6%.

Q: What about the “Plasma stability T1/2” value (Plasma stability, human) of the same compound?
A: Its value is “Stable”.

Q: What about the CC50 at 3 days (in vitro) of the same compound?
A: Its CC50 at 3 days is > 100 µM.

Q: What about the IC50 [1] of the same compound?
A: The IC50 was 0.037 ± 0.0065 µM.

Q: And the “Microsomal stability Rem. at 45 min” value [2]?
A: Its value is 18.5 ± 4.0%.

Q: And the microsomal CLint at 5 µM [2]?
A: The microsomal CLint at 5 µM was 77.3 ± 10.3 µL/min/mg.

Q: What about the half-life at 5 µM [2] of the same compound?
A: The half-life at 5 µM was 17.3 ± 2.2 min.

Q: What about the “Microsomal stability Rem. at 45 min” value [3] of the same compound?
A: Its value is 48.7 ± 3.2%.

Q: What about the microsomal CLint at 5 µM [3] of the same compound?
A: The microsomal CLint at 5 µM was 32.6 ± 2.1 µL/min/mg.

Q: And the half-life at 5 µM [3]?
A: The half-life at 5 µM was 44.1 ± 2.7 min.

Q: With `CCN(C[C@H]1O[C@@H](n2cc(C#Cc3cnc4ccccc4c3)c3c(N)ncnc32)[C@H](O)[C@@H]1O)S(=O)(=O)c1ccc(OC)c(C#N)c1` [Compound 12e] as the compound, how does the EC50 (SARS-CoV-2) read?
A: Its EC50 is > 100 µM.

Q: And the “Plasma stability Rem. at 120 min” value (Plasma stability, human)?
A: Its value is 76.3 ± 13.7%.

Q: What about the “Plasma stability T1/2” value (Plasma stability, human) of the same compound?
A: Its value is “Stable”.

Q: What about the CC50 at 3 days (in vitro) of the same compound?
A: Its CC50 at 3 days is > 100 µM.

Q: What about the IC50 [1] of the same compound?
A: Its IC50 is 0.028 ± 0.005 µM.

Q: And the “Microsomal stability Rem. at 45 min” value [2]?
A: Its value is 60.2 ± 3.5%.

Q: And the microsomal CLint at 5 µM [2]?
A: Its microsomal CLint at 5 µM is 19.6 ± 6.1 µL/min/mg.

Q: And the half-life at 5 µM [2]?
A: Its half-life at 5 µM is 91.3 ± 12.2 min.

Q: And the “Microsomal stability Rem. at 45 min” value [3]?
A: The value was 79.3 ± 3.8%.

Q: And the “Microsomal stability T1/2” value [3]?
A: Its value is “Stable”.

Q: For `CCN(C[C@H]1O[C@@H](n2cc(C#Cc3ccc(N)nc3)c3c(N)ncnc32)[C@H](O)[C@@H]1O)S(=O)(=O)c1ccc(OC)c(C#N)c1` [Compound 12h], which EC50 (SARS-CoV-2) is on record?
A: Its EC50 is > 100 µM.

Q: What about the “Plasma stability Rem. at 120 min” value (Plasma stability, human) of the same compound?
A: Its value is 102.3 ± 4.8%.

Q: And the “Plasma stability T1/2” value (Plasma stability, human)?
A: Its value is “Stable”.

Q: And the CC50 at 3 days (in vitro)?
A: Its CC50 at 3 days is > 100 µM.

Q: What about the IC50 [1] of the same compound?
A: Its IC50 is 0.046 ± 0.0058 µM.

Q: And the “Microsomal stability Rem. at 45 min” value [2]?
A: The value was 47.2 ± 3.5%.

Q: And the microsomal CLint at 5 µM [2]?
A: The microsomal CLint at 5 µM was 34.9 ± 4 µL/min/mg.

Q: What about the half-life at 5 µM [2] of the same compound?
A: Its half-life at 5 µM is 38 ± 3.7 min.

Q: What about the “Microsomal stability Rem. at 45 min” value [3] of the same compound?
A: The value was 43.0 ± 0.8%.

Q: And the microsomal CLint at 5 µM [3]?
A: The microsomal CLint at 5 µM was 37.8 ± 1.8 µL/min/mg.

Q: What about the half-life at 5 µM [3] of the same compound?
A: The half-life at 5 µM was 37.3 ± 1.8 min.

Q: What does the source list for `CCN(C[C@H]1O[C@@H](n2cc(C#Cc3cccnc3)c3c(N)ncnc32)[C@H](O)[C@@H]1O)S(=O)(=O)c1ccc(OC)c(C#N)c1` [Compound 12l]?
A: EC50 (SARS-CoV-2): > 100 µM; Plasma stability Rem. at 120 min (Plasma stability, human): 89.8 ± 2.0%; Plasma stability T1/2 (Plasma stability, human): Stable; CC50 at 3 days (in vitro): > 100 µM; IC50 [1]: 0.038 ± 0.0059 µM; Microsomal stability Rem. at 45 min [2]: 78.6 ± 1.1%; microsomal CLint at 5 µM [2]: 11.2 ± 1.5 µL/min/mg; half-life at 5 µM [2]: 113 ± 3.5 min; Microsomal stability Rem. at 45 min [3]: 37.4 ± 0.5%; microsomal CLint at 5 µM [3]: 40.9 ± 0.8 µL/min/mg; half-life at 5 µM [3]: 33.7 ± 0.7 min

Q: With `CCN(C[C@H]1O[C@@H](n2cc(C#Cc3ccc(C(N)=O)cc3)c3c(N)ncnc32)[C@H](O)[C@@H]1O)S(=O)(=O)c1ccc(OC)c(C#N)c1` [Compound 12o] as the compound, how does the EC50 (SARS-CoV-2) read?
A: Its EC50 is > 100 µM.

Q: And the “Plasma stability Rem. at 120 min” value (Plasma stability, human)?
A: Its value is 95.6 ± 5.1%.

Q: And the “Plasma stability T1/2” value (Plasma stability, human)?
A: The value was “Stable”.

Q: What about the CC50 at 3 days (in vitro) of the same compound?
A: The CC50 at 3 days was > 100 µM.

Q: What about the IC50 [1] of the same compound?
A: The IC50 was 0.049 ± 0.0062 µM.

Q: What about the “Microsomal stability Rem. at 45 min” value [2] of the same compound?
A: Its value is 30.5 ± 5.3%.

Q: And the microsomal CLint at 5 µM [2]?
A: The microsomal CLint at 5 µM was 53.8 ± 5.8 µL/min/mg.

Q: What about the half-life at 5 µM [2] of the same compound?
A: The half-life at 5 µM was 26.2 ± 3.4 min.

Q: What about the “Microsomal stability Rem. at 45 min” value [3] of the same compound?
A: The value was 65.9 ± 3.2%.

Q: What about the microsomal CLint at 5 µM [3] of the same compound?
A: Its microsomal CLint at 5 µM is 19.2 ± 1.7 µL/min/mg.

Q: What about the half-life at 5 µM [3] of the same compound?
A: Its half-life at 5 µM is 74.9 ± 7.5 min.

Q: With `COc1ccc(S(=O)(=O)N(C)C[C@H]2O[C@@H](n3cc(C#Cc4cnc5ccccc5c4)c4c(N)ncnc43)[C@H](O)[C@@H]2O)cc1C#N` [Compound 12q] as the compound, how does the EC50 (SARS-CoV-2) read?
A: The EC50 was > 100 µM.

Q: And the “Plasma stability Rem. at 120 min” value (Plasma stability, human)?
A: Its value is 97.2 ± 4.1%.

Q: And the “Plasma stability T1/2” value (Plasma stability, human)?
A: The value was “Stable”.

Q: And the CC50 at 3 days (in vitro)?
A: The CC50 at 3 days was > 100 µM.

Q: And the IC50 [1]?
A: Its IC50 is 0.019 ± 0.0025 µM.

Q: And the “Microsomal stability Rem. at 45 min” value [2]?
A: The value was 105.0 ± 3.9%.

Q: And the “Microsomal stability T1/2” value [2]?
A: Its value is “Stable; also recorded: excellent stability”.

Q: What about the “Microsomal stability Rem. at 45 min” value [3] of the same compound?
A: The value was 101.0 ± 3.4%.

Q: And the “Microsomal stability T1/2” value [3]?
A: The value was “Stable; also recorded: excellent stability”.

Q: Which EC50 (SARS-CoV-2) does the source give for `COc1ccc(S(=O)(=O)N(C)C[C@H]2O[C@@H](n3cc(C#Cc4ccc(C(N)=O)cc4)c4c(N)ncnc43)[C@H](O)[C@@H]2O)cc1C#N` [Compound 12r] here?
A: The EC50 was > 100 µM.

Q: And the “Plasma stability Rem. at 120 min” value (Plasma stability, human)?
A: Its value is 89.7 ± 0.6%.

Q: What about the “Plasma stability T1/2” value (Plasma stability, human) of the same compound?
A: Its value is “Stable”.

Q: What about the CC50 at 3 days (in vitro) of the same compound?
A: Its CC50 at 3 days is > 100 µM.

Q: What about the IC50 [1] of the same compound?
A: Its IC50 is 0.023 ± 0.0037 µM.

Q: What about the “Microsomal stability Rem. at 45 min” value [2] of the same compound?
A: The value was 83.3 ± 2.6%.

Q: And the “Microsomal stability T1/2” value [2]?
A: The value was “Stable; also recorded: excellent stability”.

Q: What about the “Microsomal stability Rem. at 45 min” value [3] of the same compound?
A: Its value is 80.9 ± 12.0%.

Q: What about the “Microsomal stability T1/2” value [3] of the same compound?
A: Its value is “Stable; also recorded: excellent stability”.

Q: Which results are given for `COc1ccc(S(=O)(=O)N(C)C[C@H]2O[C@@H](n3cc(C#Cc4cccnc4)c4c(N)ncnc43)[C@H](O)[C@@H]2O)cc1C#N` [Compound 12s]?
A: EC50 (SARS-CoV-2): > 100 µM; Plasma stability Rem. at 120 min (Plasma stability, human): 86.9 ± 0.9%; Plasma stability T1/2 (Plasma stability, human): Stable; CC50 at 3 days (in vitro): > 100 µM; IC50 [1]: 0.021 ± 0.003 µM; Microsomal stability Rem. at 45 min [2]: 55.9 ± 4.7%; microsomal CLint at 5 µM [2]: 27.1 ± 2 µL/min/mg; half-life at 5 µM [2]: 53.7 ± 2.7 min; Microsomal stability Rem. at 45 min [3]: 50.2 ± 3.2%; microsomal CLint at 5 µM [3]: 30.5 ± 4.7 µL/min/mg; half-life at 5 µM [3]: 50.8 ± 5.1 min
